pIC50: −log10 of the molar value. Like-named read-outs stand apart in the source and are kept apart here. Bounds are passed on as bounds.

One series deals with HCT116. As to the kind of experiment: In vitro cytotoxicity measured by the cell colony formation assay. The format is cell-based. As to conditions: read-out: IN VITRO ID 50 (nm) HCT116.
Where [1] appears, read: HCT116 cells, 72 h drug incubation, colonies counted after 7 days, ID50 = drug concentration producing 50% inhibition of colony formation.

For `CCC(=O)O[C@H]1C(=O)[C@@]2(C)C([C@H](OC(=O)c3ccccc3)[C@]3(O)C[C@H](OC(=O)[C@H](O)[C@@H](NC(=O)c4ccccc4)c4cccs4)C(C)=C1C3(C)C)[C@]1(OC(C)=O)CO[C@@H]1C[C@@H]2O` (stereo partly shown) [Compound 0687, 3′-Desphenyl-3′-(2-thienyl)-10-propionyl-10-deacetyl taxol], the melting point is 154 to 155 °C. Also, the pIC50 in the series with HCT116 (Homo sapiens, HCT-116) is above 9.00. Consider `C/C=C/C(=O)O[C@H]1C(=O)[C@@]2(C)C([C@H](OC(=O)c3ccccc3)[C@]3(O)C[C@H](OC(=O)[C@H](O)[C@@H](NC(=O)OC(C)(C)C)c4cccnc4)C(C)=C1C3(C)C)[C@]1(OC(C)=O)CO[C@@H]1C[C@@H]2O` (stereo partly shown) [Compound 2353], for which, in the series on HCT116 (setting [1]), the pIC50 was above 8.00. On to `CCC(=O)O[C@H]1C(=O)[C@@]2(C)C([C@H](OC(=O)c3ccccc3)[C@]3(O)C[C@H](OC(=O)[C@H](O)[C@@H](NC(=O)OCC(C)C)C4CC4)C(C)=C1C3(C)C)[C@]1(OC(C)=O)CO[C@@H]1C[C@@H]2O` (stereo partly shown) [Compound 4799], for which the pIC50 in the series with HCT116 (setting [1]) was above 9.00.

As to `C/C=C/C(=O)O[C@H]1C(=O)[C@@]2(C)C([C@H](OC(=O)c3ccccc3)[C@]3(O)C[C@H](OC(=O)[C@H](O)[C@@H](NC(=O)OC(C)(C)C)c4ccccn4)C(C)=C1C3(C)C)[C@]1(OC(C)=O)CO[C@@H]1C[C@@H]2O` (stereo partly shown) [Compound 2348], in the series with HCT116 (setting [1]), the pIC50 was above 9.00. Same read-out and setting: the result for `CCC(=O)O[C@H]1C(=O)[C@@]2(C)C([C@H](OC(=O)c3ccccc3)[C@]3(O)C[C@H](OC(=O)[C@H](O)[C@@H](NC(=O)c4ccccc4)c4ccncc4)C(C)=C1C3(C)C)[C@]1(OC(C)=O)CO[C@@H]1C[C@@H]2O` (stereo partly shown) [Compound 0659] reads above 9.00. On the same count and under the same terms, next, `C/C=C/C(=O)N[C@@H](c1ccoc1)[C@@H](O)C(=O)O[C@H]1C[C@@]2(O)[C@@H](OC(=O)c3ccccc3)C3[C@](C)(C(=O)[C@H](OC(=O)C4CC4)C(=C1C)C2(C)C)[C@@H](O)C[C@H]1OC[C@@]31OC(C)=O` (stereo partly shown) [Compound 4944]: above 9.00; `CC(=O)OC12COC1CC(O)C1(C)C(=O)C(OC(=O)c3ccco3)C3=C(C)C(OC(=O)C(O)C(NC(=O)OC(C)(C)C)c4cccs4)CC(O)(C(OC(=O)c4ccccc4)C21)C3(C)C` (stereo not shown) [Compound 2164]: above 9.00; `CCC(=O)O[C@H]1C(=O)[C@@]2(C)C([C@H](OC(=O)c3ccccc3)[C@]3(O)C[C@H](OC(=O)[C@H](O)[C@@H](NC(=O)OC(C)(C)C)c4ccoc4)C(C)=C1C3(C)C)[C@]1(OC(C)=O)CO[C@@H]1C[C@@H]2O` (stereo partly shown) [Compound 0549]: above 8.00. Still for that read-out and setting: the result for `CCC(=O)O[C@H]1C(=O)[C@@]2(C)C([C@H](OC(=O)c3ccccc3)[C@]3(O)C[C@H](OC(=O)[C@H](O)[C@@H](NC(=O)c4ccncc4)c4cccs4)C(C)=C1C3(C)C)[C@]1(OC(C)=O)CO[C@@H]1C[C@@H]2O` (stereo partly shown) [Compound 4207] reads above 8.00; that for `CC(=O)O[C@@]12CO[C@@H]1C[C@H](O)[C@@]1(C)C(=O)[C@H](OC(=O)C(C)C)C3=C(C)[C@@H](OC(=O)[C@H](O)[C@@H](NC(=O)OC(C)(C)C)c4ccsc4)C[C@@](O)([C@@H](OC(=O)c4ccccc4)C12)C3(C)C` (stereo partly shown) [Compound 2291], above 9.00. On to `CC(=O)O[C@@]12CO[C@@H]1C[C@H](O)[C@@]1(C)C(=O)[C@H](OC(=O)C(C)C)C3=C(C)[C@@H](OC(=O)[C@H](O)[C@@H](NC(=O)OC(C)(C)C)c4cccs4)C[C@@](O)([C@@H](OC(=O)c4ccccc4)C12)C3(C)C` (stereo partly shown) [Compound 2287], for which the pIC50 in the series on HCT116 (setting [1]) was above 9.00. The same measure, in the same setting: the result for `CC(=O)O[C@@]12CO[C@@H]1C[C@H](O)[C@@]1(C)C(=O)[C@H](OC(=O)C3CC3)C3=C(C)[C@@H](OC(=O)[C@H](O)[C@@H](NC(=O)c4ccccc4)c4ccccc4)C[C@@](O)([C@@H](OC(=O)c4ccccc4)C12)C3(C)C` (stereo partly shown) [Compound 0937] reads above 8.00; that for `CCCC(=O)OC1C(=O)C2(C)C(O)CC3OCC3(OC(C)=O)C2C(OC(=O)c2ccccc2)C2(O)CC(OC(=O)C(O)C(NC(=O)OC(C)(C)C)C3CCC3)C(C)=C1C2(C)C` (stereo not shown) [Compound 1044], above 9.00.

Turning to `CCC(=O)O[C@H]1C(=O)[C@@]2(C)C([C@H](OC(=O)c3ccccc3)[C@]3(O)C[C@H](OC(=O)[C@H](O)[C@@H](NC(=O)c4ccccc4)C4CCC4)C(C)=C1C3(C)C)[C@]1(OC(C)=O)CO[C@@H]1C[C@@H]2O` (stereo partly shown) [Compound 0720], the pIC50 with HCT116 (setting [1]) was above 8.00. Consider `CC(=O)OC12COC1CC(O)C1(C)C(=O)C(OC(=O)c3ccco3)C3=C(C)C(OC(=O)C(O)C(NC(=O)OC(C)(C)C)c4ccco4)CC(O)(C(OC(=O)c4ccccc4)C21)C3(C)C` (stereo not shown) [Compound 2142], for which the pIC50 with HCT116 (setting [1]) is above 9.00.

The record behind these values is patent publication US7524869B2, “Taxanes having a C10 ester substituent” (Florida State University Research Foundation, Inc., priority 2000, dated 2009).
